Patent EP0846119B1, “THIENOPYRIMIDINE DERIVATIVES, THEIR PRODUCTION AND USE AS ENDOTHELIN ANTAGONISTS” (Takeda Chemical Industries, Ltd., priority 1995, dated 1997)

Tested on: coronary artery where ETA is expressed
Test: Inhibition Test on coronary artery where ETA is expressed (ET-1-induced constriction of ring samples)
Conditions: porcine coronary artery ring, pre-treatment 30 minutes, relative to vehicle group
Procedure: Inhibition Test on coronary artery where ETA is expressed:
3-mm ring samples for vehicle group and drug-treating group were prepared by removing fat and connective tissue from coronary artery enucleated from porcine heart and obtained from the adjacent portions thereof. The samples, hanging in Magnus tube filled with Krebs solution, were stabilized for 90 minutes under 2 g of static tension. After subjecting the samples to constriction for 10 minutes by potassium chloride (KCl) (60 mM) to obtain the maximum reaction, the samples were then washed and stabilized for 60 minutes. […]
The constriction efficiency (% KCl) of ET-1 was calculated as a relative value to KCl constriction of each sample which was regarded as 100%. Further, the inhibiting efficiency was calculated from the constriction efficiency of the drug-treating group calculated as a relative value to the constriction of the vehicle group which was regarded as 100%.

Structure (SMILES) | % inhibition (MEAN ± S.E.M.) (n=) artery (ET-1 3nM) (compound 1 µM) | % inhibition (MEAN ± S.E.M.) (n=) artery (ET-1 3nM) (compound 0.1 µM)
CCS(=O)(=O)NCc1c(-c2ccc(OCOC)cc2)sc2c1c(=O)n(CC(=O)O)c(=O)n2Cc1ccccc1SC [11(16), 2,4(1H,3H)-Dioxo-6-(4-methoxymethoxyphenyl)-1-(2-methylthiobenzyl)-5-(ethanesulfonamidomethyl)thieno[2,3-d]pyrimidine-3-acetic acid] | 33.1 ± 8.6 (4) % | 
COCOc1ccc(-c2sc3c(c2CNS(C)(=O)=O)c(=O)n(CC(=O)O)c(=O)n3Cc2ccccc2SC)cc1 [Example 5, 2,4(1H,3H)-dioxo-6-(4-methoxymethoxyphenyl)-1-(2-methylthiobenzyl)-5-(methanesulfonamidomethyl)thieno[2,3-d]pyrimidine-3-aretic acid] | 78.1 ± 11.9 (4) % | 7.6 ± 37.3 (3) %
